Values quoted from earlier work in patent US20040175402A1, “Formulation” (priority 2001, published 2004).

Key:
[1] = tested on: monkeys
[2] = tested on: mice
[3] = tested on: human breast cancer cells; settings: human breast cancer cells in vitro
[4] = tested on: rats

## C[C@]12CC[C@@H]3c4ccc(O)cc4C[C@@H](CCCCCCCCC[S+]([O-])CCCC(F)(F)C(F)(F)F)[C@H]3[C@@H]1CC[C@@H]2O (stereo partly drawn) [Fulvestrant, 7α-[9-(4,4,5,5,5-Pentafluoropentylsulphinyl)nonyl]oestra-1,3-5(10)-triene-3,17β-diol]
[1]
  block of uterotrophic action of oestradiol: blocks completely the uterotrophic action of oestradiol
[2]
  block of uterotrophic action of oestradiol: blocks completely the uterotrophic action of oestradiol
[3]
  block of growth stimulatory action of oestradiol: completely blocks the growth stimulatory action of oestradiol
[4]
  block of uterotrophic action of oestradiol: blocks completely the uterotrophic action of oestradiol
